In patent US7332482B2, “Method for treating benign prostatic hyperplasia” (BioXell S.p.A., priority 2003, dated 2008):

Target: T1, 5α reductase type 2 (Homo sapiens, UniProt P31213)
T1 construct: host or cells: CHO 1829
T1 sequence (P31213 1-254): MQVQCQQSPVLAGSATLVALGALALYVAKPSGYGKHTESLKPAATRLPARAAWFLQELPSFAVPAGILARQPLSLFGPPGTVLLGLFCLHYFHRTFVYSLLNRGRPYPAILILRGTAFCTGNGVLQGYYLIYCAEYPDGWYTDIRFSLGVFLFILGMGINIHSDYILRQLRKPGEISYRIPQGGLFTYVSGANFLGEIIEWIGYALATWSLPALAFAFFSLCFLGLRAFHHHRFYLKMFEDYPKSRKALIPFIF
Assay: 5α reductase inhibition test in CHO 1829 cells
Type: cell-based
Settings: 10^−9 to 10^−5 M
Method: CHO-1827 and CHO-1829 cells, transfected with 5α reductase type 1 (5αR-1) or type 2 (5αR-2), respectively (see Steers W. Urology (2001) 58 p 17-24), were maintained in Ham's F12 medium supplemented with 5% FCS.
5α reductase inhibition assay was performed using CHO 1827 cells, transfected with 5αR-1, or CHO 1829 cells, transfected with 5αR-2, as described (see Guarna A, et al. Journal of Medicinal Chemistry (2000) 43 3718-3735.). Compound A was added in a concentration range from 10^−9 to 10^−5 M, using finasteride as a control inhibitor in each experiment.

C=C1/C(=C\C=C2/CCC[C@]3(C)C([C@@H](C)C/C=C/C(O)(CC)CC)=CC[C@@H]23)C[C@@H](O)C[C@@H]1F [Compound A, 1-alpha-fluoro-25-hydroxy-16,23E-diene-26,27-bishomo-20-epi-cholecalciferol]
interference with 5α reductase type 2: did not interfere with either isoenzyme up to the micromolar range
